Assay results published in US10059713B2 (Takeda Pharmaceutical Company Limited, priority 2014, dated 2018).

Each molecule was assayed against human GPR43 (Homo sapiens (Human), UniProt O15552) (assay: Ca-Flux functional assay: determination of agonist/positive allosteric modulator (PAM) activity). Details: CHO-K1 Gα16 cells stably expressing human GPR43; compound added with EC20 sodium acetate; intracellular Ca2+ by FLIPR; does not distinguish agonist from PAM.
Format: cell-based
Procedure, shortened: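 CHO-K1 Gα16 cells stably expressing human GPR43, loaded with Calcium 5 dye 1 h; compounds (10-point half-log from 10 μM) added with sodium acetate at EC20. FLIPR calcium signal gave EC50, two wells per point; agonists and PAMs not distinguished.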

human GPR43, sequence (O15552 whole entry): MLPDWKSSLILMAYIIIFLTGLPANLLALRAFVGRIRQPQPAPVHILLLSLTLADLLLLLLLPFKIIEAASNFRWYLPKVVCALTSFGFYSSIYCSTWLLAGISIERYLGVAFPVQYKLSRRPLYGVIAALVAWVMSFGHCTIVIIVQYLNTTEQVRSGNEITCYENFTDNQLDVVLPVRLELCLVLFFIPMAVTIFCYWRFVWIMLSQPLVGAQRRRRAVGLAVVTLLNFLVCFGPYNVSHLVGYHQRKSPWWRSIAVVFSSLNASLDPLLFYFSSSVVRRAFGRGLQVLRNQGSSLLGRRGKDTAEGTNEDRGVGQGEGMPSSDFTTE

| SMILES | EC50 |
| --- | --- |
| Nc1[nH]c2c(N3CCC(F)CC3)ncnc2c1S(=O)(=O)c1ccccc1 [Example 46, 7-(benzenesulfonyl)-4-(4-fluoropiperidin-1-yl)-5H-pyrrolo[3,2-d]pyrimidin-6-amine] | 153 nM |
| CC1CN(c2ncnc3c(S(=O)(=O)c4ccc(C(F)(F)F)cc4)c(N)[nH]c23)CCO1 (stereo not drawn) [Example 136, 4-(2-methylmorpholin-4-yl)-7-[4-(trifluoromethyl)benzenesulfonyl]-5H-pyrrolo[3,2-d]pyrimidin-6-amine] | 118 nM |
| CC(C)CC1CN(c2ncnc3c(S(=O)(=O)c4ccccc4)c(N)[nH]c23)CCO1 (stereo not drawn) [Example 101, 7-(benzenesulfonyl)-4-[2-(2-methylpropyl)morpholin-4-yl]-5H-pyrrolo[3,2-d]pyrimidin-6-amine] | 31 nM |
| Cc1nc(N2CCOC(C(F)(F)F)C2)c2[nH]c(N)c(S(=O)(=O)c3ccccc3F)c2n1 (stereo not drawn) [Example 231, 7-(2-fluorobenzenesulfonyl)-2-methyl-4-[2-(trifluoromethyl)morpholin-4-yl]-5H-pyrrolo[3,2-d]pyrimidin-6-amine] | 2 nM |
| Nc1[nH]c2c(OCC3CC(F)(F)C3)ncnc2c1S(=O)(=O)c1ccccc1 [Example 171, 7-(benzenesulfonyl)-4-[(3,3-difluorocyclobutyl)methoxy]-5H-pyrrolo[3,2-d]pyrimidin-6-amine] | 134 nM |
| COC1CCN(c2ncnc3c(S(=O)(=O)c4ccccc4)c(N)[nH]c23)CC1 [Example 28, 7-(benzenesulfonyl)-4-(4-methoxypiperidin-1-yl)-5H-pyrrolo[3,2-d]pyrimidin-6-amine] | 647 nM |
| Cc1nc(OCC2CCC2)c2[nH]c(N)c(S(=O)(=O)c3ccccc3)c2n1 [Example 249, 7-(benzenesulfonyl)-4-(cyclobutylmethoxy)-2-methyl-5H-pyrrolo[3,2-d]pyrimidin-6-amine] | 31 nM |
| CSc1nc(N2CCOC(C)C2)c2[nH]c(N)c(S(=O)(=O)c3ccccc3F)c2n1 (stereo not drawn) [Example 269, 7-(2-fluorobenzenesulfonyl)-4-(2-methylmorpholin-4-yl)-2-(methylsulfanyl)-5H-pyrrolo[3,2-d]pyrimidin-6-amine] | 9 nM |
| Nc1[nH]c2c(-c3ccncc3)ncnc2c1S(=O)(=O)c1ccccc1 [Example 66, 7-(benzenesulfonyl)-4-(pyridin-4-yl)-5H-pyrrolo[3,2-d]pyrimidin-6-amine] | 2410 nM |
| CC1(C)CN(c2nncc3c(S(=O)(=O)c4ccccc4F)c(N)[nH]c23)CCO1 [Example 234, 7-(2,2-dimethylmorpholin-4-yl)-3-(2-fluorobenzenesulfonyl)-1H-pyrrolo[2,3-d]pyridazin-2-amine] | 69 nM |
| CN(c1ncnc2c(S(=O)(=O)c3ccccc3)c(N)[nH]c12)C1CC1 [Example 98, 7-(benzenesulfonyl)-4-N-cyclopropyl-4-N-methyl-5H-pyrrolo[3,2-d]pyrimidine-4,6-diamine] | 648 nM |
| CN(c1ncnc2c(S(=O)(=O)c3ccccc3)c(N)[nH]c12)C1CCOC(C)(C)C1 (stereo not drawn) [Example 189, 7-(benzenesulfonyl)-4-N-(2,2-dimethyloxan-4-yl)-4-N-methyl-5H-pyrrolo[3,2-d]pyrimidine-4,6-diamine] | 1970 nM |
| CC(C)C1CN(c2ncnc3c(S(=O)(=O)c4ccccc4)c(N)[nH]c23)CCO1 (stereo not drawn) [Example 184, 7-(benzenesulfonyl)-4-[2-(propan-2-yl)morpholin-4-yl]-5H-pyrrolo[3,2-d]pyrimidin-6-amine] | 83 nM |
| Cc1nc(N2C[C@@H](C)O[C@@H](C)C2)c2[nH]c(N)c(S(=O)(=O)c3ccccc3)c2n1 [Example 138, 7-(benzenesulfonyl)-4-[(2R,6S)-2,6-dimethylmorpholin-4-yl]-2-methyl-5H-pyrrolo[3,2-d]pyrimidin-6-amine] | 6 nM |
| Cc1nc(C2CCCC2)c2[nH]c(N)c(S(=O)(=O)c3cccc(F)c3)c2n1 [Example 209, 4-cyclopentyl-7-(3-fluorobenzenesulfonyl)-2-methyl-5H-pyrrolo[3,2-d]pyrimidin-6-amine] | 303 nM |
| Nc1[nH]c2c(N3CCC(F)(F)CC3)ncnc2c1S(=O)(=O)c1ccccc1F [Example 74, 4-(4,4-difluoropiperidin-1-yl)-7-(2-fluorobenzenesulfonyl)-5H-pyrrolo[3,2-d]pyrimidin-6-amine] | 9 nM |
| Nc1[nH]c2c(C3=CCCCC3)ncnc2c1S(=O)(=O)c1ccccn1 [Example 20, 4-(cyclohex-1-en-1-yl)-7-(pyridine-2-sulfonyl)-5H-pyrrolo[3,2-d]pyrimidin-6-amine] | 317 nM |
| Cc1nc(OCC(C)(C)C)c2[nH]c(N)c(S(=O)(=O)c3ccccc3)c2n1 [Example 250, 7-(benzenesulfonyl)-4-(2,2-dimethylpropoxy)-2-methyl-5H-pyrrolo[3,2-d]pyrimidin-6-amine] | 114 nM |

| SMILES | EC50 |
| --- | --- |
| Nc1[nH]c2c(OCC3CC3)ncnc2c1S(=O)(=O)c1ccccc1 [Example 55, 7-(benzenesulfonyl)-4-(cyclopropylmethoxy)-5H-pyrrolo[3,2-d]pyrimidin-6-amine] | 131 nM |
| COc1ccc(F)c(S(=O)(=O)c2c(N)[nH]c3c(N4CCOC(C)C4)nc(C)nc23)c1 (stereo not drawn) [Example 267, 7-(2-fluoro-5-methoxybenzenesulfonyl)-2-methyl-4-(2-methylmorpholin-4-yl)-5H-pyrrolo[3,2-d]pyrimidin-6-amine] | 4 nM |
| Cc1nc(N2CCOC(C)C2)c2[nH]c(N)c(S(=O)(=O)c3cccc(F)c3F)c2n1 (stereo not drawn) [Example 182, 7-(2,3-difluorobenzenesulfonyl)-2-methyl-4-(2-methylmorpholin-4-yl)-5H-pyrrolo[3,2-d]pyrimidin-6-amine] | 6 nM |
| Cc1nc(OC2CCOC(C)(C)C2)c2[nH]c(N)c(S(=O)(=O)c3ccccc3F)c2n1 (stereo not drawn) [Example 273, -[(2,2-dimethyloxan-4-yl)oxy]-7-(2-fluorobenzenesulfonyl)-2-methyl-5H-pyrrolo[3,2-d]pyrimidin-6-amine] | 63 nM |
| Nc1[nH]c2c(N3CCCC(n4cccn4)C3)ncnc2c1S(=O)(=O)c1ccccc1 (stereo not drawn) [Example 114, 7-(benzenesulfonyl)-4-[3-(1H-pyrazol-1-yl)piperidin-1-yl]-5H-pyrrolo[3,2-d]pyrimidin-6-amine] | 1110 nM |
| Cc1nc(N2CCO[C@H](C(F)(F)F)C2)c2[nH]c(N)c(S(=O)(=O)c3cccc(F)c3F)c2n1 [Example 285, 7-(2,3-difluorobenzenesulfonyl)-2-methyl-4-[(2S)-2-(trifluoromethyl)morpholin-4-yl]-5H-pyrrolo[3,2-d]pyrimidin-6-amine] | 2 nM |
| Cc1nc(N2CCO[C@H](C(F)(F)F)C2)c2[nH]c(N)c(S(=O)(=O)c3ccccc3F)c2n1 [Example 281, 7-(2-fluorobenzenesulfonyl)-2-methyl-4-[(2S)-2-(trifluoromethyl)morpholin-4-yl]-5H-pyrrolo[3,2-d]pyrimidin-6-amine] | 1 nM |
| Nc1[nH]c2c(C3=CCCCC3)cncc2c1S(=O)(=O)c1ccccc1 [Example 16, 3-(benzenesulfonyl)-7-(cyclohex-1-en-1-yl)-1H-pyrrolo[3,2-c]pyridin-2-amine] | 21 nM |
| Cc1nc(N2CCO[C@@H](C)C2)c2[nH]c(N)c(S(=O)(=O)c3ccc(Br)cc3N3CCO[C@@H](C)C3)c2n1 [Example 240, 7-{4-bromo-2-[(2S)-2-methylmorpholin-4-yl]benzenesulfonyl}-2-methyl-4-[(2S)-2-methylmorpholin-4-yl]-5H-pyrrolo[3,2-d]pyrimidin-6-amine] | 125 nM |
| Cc1nc(N2CCO[C@@H](C)C2)c2[nH]c(N)c(S(=O)(=O)c3ccccc3Cl)c2n1 [Example 261, 7-(2-chlorobenzenesulfonyl)-2-methyl-4-[(2S)-2-methylmorpholin-4-yl]-5H-pyrrolo[3,2-d]pyrimidin-6-amine] | 14 nM |
| CCN(Cc1ccco1)c1ncnc2c(S(=O)(=O)c3ccccc3)c(N)[nH]c12 [Example 62, 7-(benzenesulfonyl)-4-N-ethyl-4-N-(furan-2-ylmethyl)-5H-pyrrolo[3,2-d]pyrimidine-4,6-diamine] | 91 nM |
| Cc1nc(OC2CCCOC2(C)C)c2[nH]c(N)c(S(=O)(=O)c3ccccc3F)c2n1 (stereo not drawn) [Example 296, 4-[(2,2-dimethyloxan-3-yl)oxy]-7-(2-fluorobenzenesulfonyl)-2-methyl-5H-pyrrolo[3,2-d]pyrimidin-6-amine] | 53 nM |
| Nc1[nH]c2c(C3CCCCC3)nc(C3CC3)nc2c1S(=O)(=O)c1ccccc1 [Example 131, 7-(benzenesulfonyl)-4-cyclohexyl-2-cyclopropyl-5H-pyrrolo[3,2-d]pyrimidin-6-amine] | 166 nM |
| Nc1[nH]c2c(C3=CCCCC3)ncnc2c1S(=O)(=O)CC1CCOCC1 [Example 109, 4-(cyclohex-1-en-1-yl)-7-(oxan-4-ylmethanesulfonyl)-5H-pyrrolo[3,2-d]pyrimidin-6-amine] | 5020 nM |
| Cc1nc(N2CCO[C@@H](C(F)(F)F)C2)c2[nH]c(N)c(S(=O)(=O)c3cccc(F)c3F)c2n1 [Example 286, 7-(2,3-difluorobenzenesulfonyl)-2-methyl-4-[(2R)-2-(trifluoromethyl)morpholin-4-yl]-5H-pyrrolo[3,2-d]pyrimidin-6-amine] | 3 nM |
| CC1CN(c2ncnc3c(S(=O)(=O)c4ccc(Cl)c(F)c4)c(N)[nH]c23)CCO1 (stereo not drawn) [Example 143, 7-(4-chloro-3-fluorobenzenesulfonyl)-4-(2-methylmorpholin-4-yl)-5H-pyrrolo[3,2-d]pyrimidin-6-amine] | 35 nM |
| Cc1nc(N2CCOC(C)(C)C2)c2[nH]c(N)c(S(=O)(=O)c3ccc(F)cc3F)c2n1 [Example 278, 7-(2,4-difluorobenzenesulfonyl)-4-(2,2-dimethylmorpholin-4-yl)-2-methyl-5H-pyrrolo[3,2-d]pyrimidin-6-amine] | 6 nM |
| N#CC1CN(c2ncnc3c(S(=O)(=O)c4ccccc4)c(N)[nH]c23)CCO1 (stereo not drawn) [Example 216, 4-[6-amino-7-(benzenesulfonyl)-5H-pyrrolo[3,2-d]pyrimidin-4-yl]morpholine-2-carbonitrile] | 117 nM |
